In US10072003B2, “Tetrahydronaphthyridine derivatives as mGluR2-negative allosteric modulators, compositions, and their use” (Merck Sharp & Dohme Corp., priority 2014, dated 2018) one finds IC50 data, which are given here for nine compounds.

Sequence of recombinant human mGluR2 (Q14416 19-872): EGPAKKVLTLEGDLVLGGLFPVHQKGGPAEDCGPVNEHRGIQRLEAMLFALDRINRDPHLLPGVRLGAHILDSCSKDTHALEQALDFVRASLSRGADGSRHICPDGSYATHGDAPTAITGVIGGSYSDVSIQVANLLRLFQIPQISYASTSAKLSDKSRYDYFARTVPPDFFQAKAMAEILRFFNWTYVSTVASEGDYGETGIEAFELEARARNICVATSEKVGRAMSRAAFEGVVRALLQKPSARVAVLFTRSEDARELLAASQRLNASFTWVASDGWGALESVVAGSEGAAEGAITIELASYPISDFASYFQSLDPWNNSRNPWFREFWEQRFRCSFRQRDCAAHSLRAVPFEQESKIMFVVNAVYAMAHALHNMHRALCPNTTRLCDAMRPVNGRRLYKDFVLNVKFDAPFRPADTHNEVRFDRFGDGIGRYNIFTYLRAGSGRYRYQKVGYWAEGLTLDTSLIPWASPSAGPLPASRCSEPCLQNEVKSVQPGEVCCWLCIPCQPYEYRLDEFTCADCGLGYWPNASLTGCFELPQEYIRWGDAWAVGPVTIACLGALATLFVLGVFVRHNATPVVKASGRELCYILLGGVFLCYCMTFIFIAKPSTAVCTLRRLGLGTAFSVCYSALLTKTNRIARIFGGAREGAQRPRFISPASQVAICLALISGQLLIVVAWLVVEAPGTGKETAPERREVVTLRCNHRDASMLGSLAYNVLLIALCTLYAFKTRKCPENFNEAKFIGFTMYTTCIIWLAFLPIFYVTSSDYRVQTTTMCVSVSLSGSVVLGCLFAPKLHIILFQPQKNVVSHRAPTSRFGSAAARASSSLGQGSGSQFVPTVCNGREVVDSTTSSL

The target of the test is recombinant human mGluR2 (Homo sapiens (Human), UniProt Q14416). In words: FLIPR Ca2+ mobilization antagonist assay in CHO dhfr- cells expressing human mGluR2 and Gα16. Type of test: cell-based. The conditions noted are these: antagonist response after addition of 2,500 nM glutamate, Fluo-4 AM, FLIPR384. The gist of the method:
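CHO dhfr- cells stably co-expressing human mGluR2 and Gα16, Fluo-4 AM loaded, preincubated with compound, then challenged with 2,500 nM glutamate; Ca2+ response read by FLIPR. Maximum calcium response vs concentration fitted to four-parameter logistic for IC50.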
In general, IC50 refers to the concentration at which inhibition is half-maximal. As to `NC(=O)c1cc(N2CCC(F)(F)CC2)c2c(n1)CN(Cc1ccnc(C(F)(F)F)n1)CC2` [Example 12-1, 4-(4,4-difluoropiperidin-1-yl)-7-((2-(trifluoromethyl)pyrimidin-4-yl)methyl)-5,6,7,8-tetrahydro-1,7-naphthyridine-2-carboxamide], the IC50 came to 40.9 nM.

With `NC(=O)c1cc(N2CCC3(CC2)CC3)c2c(n1)CN(Cc1ccnc(C(F)(F)F)n1)CC2` [Example 12-2, 4-(6-azaspiro[2.5]oct-6-yl)-7-{[2-(trifluoromethyl)pyrimidin-4-yl]methyl}-5,6,7,8-tetrahydro-1,7-naphthyridine-2-carboxamide], the IC50 turned out to be 13.1 nM.

Consider `NC(=O)c1cc(-n2cc(Cl)cn2)c2c(n1)CN(Cc1ccnc(C(F)(F)F)n1)CC2` [Example 12-3, 4-(4-chloro-1H-pyrazol-1-yl)-7-{[2-(trifluoromethyl)pyrimidin-4-yl]methyl}-5,6,7,8-tetrahydro-1,7-naphthyridine-2-carboxamide], for which the IC50 turned out to be 93.2 nM.

With `NC(=O)c1cc(N2CCC(F)(F)CC2)c2c(n1)CN(Cc1cc(C(F)(F)F)ncn1)CC2` [Example 12-4, 4-(4,4-difluoropiperidin-1-yl)-7-{[6-(trifluoromethyl)pyrimidin-4-yl]methyl}-5,6,7,8-tetrahydro-1,7-naphthyridine-2-carboxamide], the IC50 came to 35.9 nM.

For `NC(=O)c1cc(N2CCC3(CC2)CC3)c2c(n1)CN(Cc1cc(C(F)(F)F)ncn1)CC2` [Example 12-5, 4-(6-azaspiro[2.5]oct-6-yl)-7-{[6-(trifluoromethyl)pyrimidin-4-yl]methyl}-5,6,7,8-tetrahydro-1,7-naphthyridine-2-carboxamide], the IC50 turned out to be 20.4 nM.

With `COc1cc(CN2CCc3c(-c4ccc(F)cc4F)cc(C(N)=O)nc3C2)ccn1` [Example 13-1, 4-(2,4-difluorophenyl)-7-((2-methoxypyridin-4-yl)methyl)-5,6,7,8-tetrahydro-1,7-naphthyridine-2-carboxamide], the IC50 came out at 7.8 nM.

For `COc1ccc(-c2cc(C(N)=O)nc3c2CCN(Cc2ccnc(OC)c2)C3)c(F)c1` [Example 13-2, 4-(2-fluoro-4-methoxyphenyl)-7-[(2-methoxypyridin-4-yl)methyl]-5,6,7,8-tetrahydro-1,7-naphthyridine-2-carboxamide], the IC50 was 6.6 nM.

Take `COc1cc(CN2CCc3c(-c4ccc(Cl)cc4F)cc(C(N)=O)nc3C2)ccn1` [Example 13-3, 4-(4-chloro-2-fluorophenyl)-7-[(2-methoxypyridin-4-yl)methyl]-5,6,7,8-tetrahydro-1,7-naphthyridine-2-carboxamide]: the IC50 turned out to be 16 nM.

As for `COc1cc(CN2CCc3c(-c4ccc(F)cc4Cl)cc(C(N)=O)nc3C2)ccn1` [Example 13-4, 4-(2-chloro-4-fluorophenyl)-7-[(2-methoxypyridin-4-yl)methyl]-5,6,7,8-tetrahydro-1,7-naphthyridine-2-carboxamide], the half-maximal inhibitory concentration (IC50) worked out at 5.7 nM.
